In US8012943B2, “Antibacterial agents” (Optimer Pharmaceuticals, Inc., priority 2003, dated 2011):
In brackets after ≈: the same amount, converted by molar mass. Where two headings read alike, the source gives them in different places.

What was measured:
Assay in all cases: MIC, NCCLS broth microdilution
S. pneumoniae 5032 = format: cell-based; conditions: Streptococcus pneumoniae, Table 2
Method: (§1) Antibacterial activity of the novel Formula 1 and Formula 2 compounds and their pharmaceutically acceptable addition salts with organic and inorganic acids was determined against a series of microorganisms from the American Type Culture Collection (ATCC) and clinical Streptococcus sp isolates. The ATCC strains included: Staphylococcus aureus, Enterococcus faecium, Klebsiella pneumoniae, Escherichia coli, Salmonella typhimurium, Streptococcus pneumoniae, Streptococcus pyogenes, and Haemophilus influenzae. The clinical strains included macrolide resistant Streptococcus sp. with either Erm or MefA resistance mechanisms. The clinical isolates were identified using the API biochemical identification system (BioMerieux).
(§2) Antimicrobial susceptibility testing was performed according to recommendations by the National Committee for Clinical Laboratory Standards (NCCLS M100-S12, M7-A5). Briefly, two fold dilutions of compounds were made in microtiter plates. Each well of the microtiter plate was inoculated with test microorganisms at a final density 5×10^5 colony forming units (cfu)/mL. The microtiter plates were incubated at 35° C. under aerobic conditions, except for H. influenzae and S. pyogenes which were incubated at 5% CO2. The minimal inhibitory concentration (MIC) was defined as the lowest concentration of compound that inhibited growth. The results of represented examples of this invention on standard test microorganisms and clinical isolates in comparison with azithromycin and telithromycin are shown in Table 1 and Table 2.

S. pyogenes 1721 = format: cell-based; conditions: Streptococcus pyogenes, Table 2
Method: as §1, §2

S. pyogenes 1850 = format: cell-based; conditions: Streptococcus pyogenes, Table 2
Method: as §1, §2

S. pyogenes 3029 = format: cell-based; conditions: Streptococcus pyogenes, Table 2
Method: as §1, §2

S. pyogenes 3262 = format: cell-based; conditions: Streptococcus pyogenes, Table 2
Method: as §1, §2

S. pneumoniae 163(MefA) = format: cell-based, Streptococcus pneumoniae
Method: as §1, §2

S. pneumoniae 303(ErmB) = format: cell-based, Streptococcus pneumoniae
Method: as §1, §2

[1] = test system: S. pneumoniae 3773 (Erm B); format: cell-based, Streptococcus pneumoniae
Method: as §1, §2

S. pneumoniae ATCC 49619 = format: cell-based, Streptococcus pneumoniae
Method: as §1, §2

H. influenzae ATCC 49247 = format: cell-based, Haemophilus influenzae; conditions: 5% CO2
Method: as §1, §2

E. Coli ATCC 25922 = format: cell-based; conditions: Escherichia coli, ATCC25922, Table 1
Method: as §1, §2

E. faecium ATCC 19434 = format: cell-based; conditions: Enterococcus faecium, ATCC19434, Table 1
Method: as §1, §2

K. Pneumonia 13883 = format: cell-based; conditions: Klebsiella pneumoniae, Table 1
Method: as §1, §2

[2] = test system: S. aureus ATCC 29213 (MSSA) MLS-S; format: cell-based; conditions: Staphylococcus aureus, Table 1
Method: as §1, §2

S. aureus MRSA 33591 = format: cell-based; conditions: Staphylococcus aureus, Table 1
Method: as §1, §2

S. pyogenes ATCC 19615 = format: cell-based; conditions: Streptococcus pyogenes, ATCC19615, 5% CO2, Table 1
Method: as §1, §2

[3] = test system: S. Typhimurium ATCC 14028; format: cell-based; conditions: Salmonella enterica, Table 1
Method: as §1
as §2, with “growth.” for “growth. The results of represented examples of this invention on standard test microorganisms and clinical isolates in comparison with azithromycin and telithromycin are shown in Table 1 and Table 2.”

[4] = Streptococcus pneumoniae, S. pneumoniae 163 (Mef A), Table 2, read-out: MIC
[5] = Streptococcus pneumoniae, S. pneumoniae ErmB 303, Table 2, read-out: MIC
[6] = Streptococcus pneumoniae, Table 2, read-out: MIC
[7] = Streptococcus pneumoniae, ATCC49619, Table 2, read-out: MIC
[8] = Haemophilus influenzae, ATCC49247, H. influenzae ATCC 49247, Table 2, read-out: MIC
[9] = Streptococcus pneumoniae, S. pneumoniae 163(MefA), Table 1, read-out: MIC
[10] = Streptococcus pneumoniae, S. pneumoniae 303(ErmB), Table 1, read-out: MIC
[11] = Haemophilus influenzae, ATCC49247, H. influenzae ATCC 49247, Table 1, read-out: MIC
[12] = Streptococcus pneumoniae, ATCC49619, Table 1, read-out: MIC

Row | Compound | MIC (S. pneumoniae 5032) [µg/mL] | MIC (S. pyogenes 1721) [µg/mL] | MIC (S. pyogenes 1850) [µg/mL] | MIC (S. pyogenes 3029) [µg/mL] | MIC (S. pyogenes 3262) [µg/mL] | MIC (S. pneumoniae 163(MefA); [4]) [µg/mL] | MIC (S. pneumoniae 303(ErmB); [5]) [µg/mL] | MIC [1, 6] [µg/mL] | MIC (H. influenzae ATCC 49247; [8]) [µg/mL] | MIC (E. Coli ATCC 25922) [µg/mL] | MIC (E. faecium ATCC 19434) [µg/mL] | MIC (K. Pneumonia 13883) [µg/mL] | MIC [2] [µg/mL] | MIC (S. aureus MRSA 33591) [µg/mL] | MIC (S. pyogenes ATCC 19615) [µg/mL] | MIC [3] [µg/mL] | MIC (S. pneumoniae 163(MefA); [9]) [µg/mL] | MIC (S. pneumoniae 303(ErmB); [10]) [µg/mL] | MIC (H. influenzae ATCC 49247; [11]) [µg/mL] | MIC (S. pneumoniae ATCC 49619; [12]) [µg/mL] | further results
1 | CC[C@H]1OC(=O)[C@@](C)(F)C(=O)[C@H](C)[C@@H](OC2OC(COC(C)=O)CC(N(C)C)C2O)[C@@](C)(OC)C[C@@H](C)C(=O)[C@H](C)[C@H]2N(CCCCn3cc(-c4cccc(N)n4)nn3)C(=O)O[C@]12C (stereo partly drawn) [OP-1356, 11-N-{4-[4-(6-Amino-pyridin-2-yl)-[1,2,3]triazol-1-yl]-butyl}-5-(3-dimethylamine-4-deoxy-6-O-acetyl-glucopyranosyl)-3-oxo-2-fluoro-erythronolide A,-11,12-cyclic carbamate] | 1 (≈ 1.11 µM) | 4 (≈ 4.42 µM) | 0.25 (≈ 0.277 µM) | 1 (≈ 1.11 µM) | 4 (≈ 4.42 µM) | ≤ 0.125 | ≤ 0.125 | 0.5 (≈ 0.553 µM) | 1 (≈ 1.11 µM) |  |  |  |  |  |  |  |  |  |  |  | MIC (S. pneumoniae ATCC 49619; [7]): ≤ 0.125 µg/mL
2 | CC[C@H]1OC(=O)[C@H](C)C(=O)[C@H](C)[C@@H](OC(=O)C2CN(C(=O)OC(C)(C)C)C(C)(C)O2)[C@@](C)(OC)C[C@@H](C)C(=O)[C@H](C)[C@H]2N(CCCCn3cnc(-c4cccnc4)c3)C(=O)O[C@]12C (stereo partly drawn) [OP-1086] |  |  |  |  |  |  |  |  |  | > 64 | 4 (≈ 4.53 µM) | > 64 | 4 (≈ 4.53 µM) | > 64 | 32 (≈ 36.3 µM) | > 64 | ≤ 0.125 | 0.25 (≈ 0.283 µM) | > 64 |  | 
3 | CC[C@H]1OC(=O)[C@@](C)(F)C(=O)[C@H](C)[C@@H](OC2OC(C)CC(N(C)C)C2O)[C@@](C)(OC)C[C@@H](C)C(=O)[C@H](C)[C@H]2N(CCCCn3cc(-c4cccc(N)n4)nn3)C(=O)O[C@]12C (stereo partly drawn) [OP-1357, 11-N-{4-[4-(6-Amino-pyridin-2-yl)-[1,2,3]triazol-1-yl]-butyl}-5-desosaminyl-3-oxo-2-fluoro-erythronolide A,-11,12-cyclic carbamate] | 1 (≈ 1.18 µM) | 2 (≈ 2.36 µM) | 0.25 (≈ 0.296 µM) | 1 (≈ 1.18 µM) | 1 (≈ 1.18 µM) | ≤ 0.125 | ≤ 0.125 | 1 (≈ 1.18 µM) | 4 (≈ 4.73 µM) |  |  |  |  |  |  |  |  |  |  |  | MIC (S. pneumoniae ATCC 49619; [7]): ≤ 0.125 µg/mL
4 | CC[C@H]1OC(=O)[C@H](C)C(=O)[C@H](C)[C@@H](OC2OC(C)CC(N(C)C)C2O)[C@@](C)(OC)C[C@@H](C)C(=O)[C@H](C)[C@H]2N(CCCCn3cc(Cn4nnc5ccccc54)nn3)C(=O)O[C@]12C (stereo partly drawn) [OP-1007, 11-N-[4-(4-Benzotriazol-1-ylmethyl-[1,2,3]triazol-1-yl)-butyl]-6-O-methyl-5-O-dasosaminyl-3-oxo-erythronolide A, 11,12-carbamate] |  |  |  |  |  |  |  |  |  | 64 (≈ 73.8 µM) | ≤ 0.125 | 32 (≈ 36.9 µM) | ≤ 0.125 | > 64 | ≤ 0.125 | 8 (≈ 9.23 µM) | ≤ 0.125 | > 64 | 0.5 (≈ 0.577 µM) | ≤ 0.125 | 
5 | CC[C@H]1OC(=O)[C@H](C)[C@@H](O[C@H]2C[C@@](C)(OC)[C@@H](O)[C@H](C)O2)[C@H](C)[C@@H](O[C@@H]2O[C@H](C)C[C@H](N(C)C)[C@H]2O)[C@](C)(O)C[C@@H](C)CN(C)[C@H](C)[C@@H](O)[C@]1(C)O [Azithromycin, reference compound] |  |  |  |  |  |  |  |  |  | 8 (≈ 10.7 µM) | 4 (≈ 5.34 µM) | 8 (≈ 10.7 µM) | 1 (≈ 1.34 µM) | > 64 | 1 (≈ 1.34 µM) | 4 (≈ 5.34 µM) | ≤ 0.125 | 0.5 (≈ 0.668 µM) | 2 (≈ 2.67 µM) | ≤ 0.125 | 
6 | CC[C@H]1OC(=O)[C@H](C)C(=O)[C@H](C)[C@@H](OC2OC(C)C(O)C(N(C)C)C2O)[C@@](C)(OC)C[C@@H](C)C(=O)[C@H](C)[C@H]2N(CCCCn3cc(Cn4nnc5ccccc54)nn3)C(=O)O[C@]12C (stereo partly drawn) [OP-1071, 11-N-[4-(4-Benzotriazol-1-ylmethyl-[1,2,3]triazol-1-yl)-butyl]-6-O-methyl-5-mycaminosyl-3-oxo-erythronolide A, 11,12-carbamate] |  |  |  |  |  |  |  |  |  | > 64 | ≤ 0.125 | > 64 | 0.25 (≈ 0.283 µM) | > 64 | ≤ 0.125 | > 64 | 0.5 (≈ 0.566 µM) | > 64 | 2 (≈ 2.26 µM) | ≤ 0.125 | 
7 | CC[C@H]1OC(=O)[C@H](C)C(=O)[C@H](C)[C@@H](O[C@@H]2O[C@H](C)C[C@H](N(C)C)[C@H]2O)[C@](C)(OC)C[C@@H](C)C(=O)[C@H](C)[C@H]2N(CCCCn3cnc(-c4cccnc4)c3)C(=O)O[C@]12C [Telithromycin, reference compound] | 1 (≈ 1.23 µM) | 64 (≈ 78.8 µM) | 8 (≈ 9.85 µM) | 16 (≈ 19.7 µM) | 32 (≈ 39.4 µM) |  |  | 1 (≈ 1.23 µM) | 4 (≈ 4.93 µM) | 16 (≈ 19.7 µM) | ≤ 0.125 | 16 (≈ 19.7 µM) | ≤ 0.125 | > 64 | ≤ 0.125 | 4 (≈ 4.93 µM) | ≤ 0.125 | ≤ 0.125 | 2 (≈ 2.46 µM) | ≤ 0.125 | MIC (S. pneumoniae 163(MefA); S. pneumoniae 163 (Mef A), Table 2): <=0.125 mcg/mL; MIC (S. pneumoniae 303(ErmB); S. pneumoniae ErmB 303, Table 2): <=0.125 mcg/mL; MIC (S. pneumoniae ATCC 49619; Table 2): <=0.125 mcg/mL
8 | CC[C@H]1OC(=O)[C@@](C)(F)C(=O)[C@H](C)[C@@H](O[C@@H]2O[C@H](C)C[C@H](N(C)C)[C@H]2O)[C@](C)(OC)C[C@@H](C)C(=O)[C@H](C)[C@H]2N(CCCCn3cc(-c4cccc(N)c4)nn3)C(=O)O[C@]12C [OP-1068, 11-N-[4-[4-(3-aminophenyl)-[1,2,3]triazol-1-yl]-butyl]-5-desosaminyl-3-oxo-2-fluoro-erythronolide A, 11,12-cyclic carbamate] | 0.5 (≈ 0.592 µM) | 0.5 (≈ 0.592 µM) | ≤ 0.125 | ≤ 0.125 | 0.5 (≈ 0.592 µM) | ≤ 0.125 | ≤ 0.125 | 0.5 (≈ 0.592 µM) | 2 (≈ 2.37 µM) |  |  |  |  |  |  |  |  |  |  |  | MIC ([1]; Table 2): 1 µg/mL (≈ 1.18 µM); MIC (S. pneumoniae ATCC 49619; [7]): ≤ 0.125 µg/mL; MIC (H. influenzae ATCC 49247; H. influenzae ATCC 49247, Table 2): 4 µg/mL (≈ 4.73 µM)
